Among the data in patent US20150238447A1, “BETA-HYDROXY-BETA-METHYLBUTRYIC ACID-CONTAINING COMPOSITIONS AND USES THEREOF” (ABBOTT LABORATORIES, priority 2012, published 2015) are exploratory activity values, retold here.

SMILES strings stand for the structures.

The subject of the assay is mice fed a high fat diet. Description: motor (exploratory) activity in activity monitoring chamber, Opto-Varimex 4. The settings on record: high fat diet plus Ca-HMB (170 or 340 mg/kg of drinking water) compared to high fat diet alone; 30 minutes observation. In kind it is in vivo. As to the method:
The mice arrived at the facility at 21 days post birth and were divided into 6 groups after a seven day quarantine. There were 5 animals each. […] were placed on the following diets:
Group 1: High Fat Diet alone;
Group 2: High Fat Diet plus 500 mg of leucine/kg of drinking water;
Group 3: High Fat Diet plus 1000 mg of leucine/kg of drinking water;
Group 4: High Fat Diet plus 170 mg of Ca-HMB/kg of drinking water;
Group 5: High Fat Diet plus 340 mg of Ca-HMB/kg of drinking water; and
One week before the initiation of the study, the animals were acclimatized in the activity monitoring chamber, daily for half an hour. On the day of experiment, each set of animals were placed in the activity monitoring chamber (chamber 1 to 5) for half an hour. Motor activity of the mice in each group was monitored using the Actometry Apparatus: “Opto-Varimex 4” Auto-track system, Model No: 0271-004M. The motor activity of each mouse was monitored once in a week between 8:30 AM and 12:00 PM for 30 minutes. Six sets of “half an hour observations” were made for each of the 30 animals. The software captured motor activity parameters while the animals were in the activity monitoring chamber.

For the compound `CC(C)(O)CC(=O)O` [HMB, beta-hydroxy-beta-methylbutyric acid], the exploratory activity entry was “enhanced exploratory activity”.
